In ChEMBL document CHEMBL1201862, “PubChem BioAssay data set” (2004):
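48-hour exposure; five concentrations; linearly interpolated endpoints. Abbreviation: GI50, concentration required for 50% inhibition of growth.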 Activity calls are given as the source filed them. Rule as the data show it: active = GI50 up to about 1.1 µM and inactive = higher.

Assays:
Test in all cases: NCI-60 cell line screen, 48 h
[1] = test system: UACC-62
[2] = test system: RXF 393
[3] = test system: SNB-78
[4] = test system: TK-10
[5] = test system: SN12C
[6] = test system: CCRF-CEM
[7] = test system: KM12
[8] = test system: SW-620
[9] = test system: U-251
[10] = test system: 786-0
[11] = test system: HT-29
[12] = test system: K562
[13] = test system: UO-31
[14] = test system: ACHN
[15] = test system: SNB-19
[16] = test system: LOX IMVI
[17] = test system: OVCAR-3
[18] = test system: HCT-116

Measured: GI50

CC[P+](C)(C)c1ccccc1
inactive: [1] > 100 µM | [2] > 100 µM | [3] 58.1 µM | [4] > 100 µM | [5] > 100 µM | [6] > 100 µM | [7] > 100 µM | [8] > 100 µM | [9] > 100 µM | [10] > 100 µM | [11] > 100 µM | [12] > 100 µM | [13] > 100 µM | [14] > 100 µM | [15] > 100 µM | [16] > 100 µM | [17] > 100 µM

O=C(O/N=C1/CCC/C1=C\c1ccccc1)c1ccccc1
inactive: [1] > 100 µM | [2] > 100 µM | [3] > 100 µM | [4] > 100 µM | [5] > 100 µM | [6] 48.8 µM | [18] > 100 µM | [7] > 100 µM | [8] > 100 µM | [9] > 100 µM | [10] > 100 µM | [11] 40.7 µM | [12] 38.7 µM | [14] > 100 µM | [16] 61.8 µM | [17] > 100 µM

OCc1c(-c2cccc3ccccc23)sc(-c2cccc3ccccc23)c1CO
inactive: [1] 11.3 µM | [3] 16.2 µM | [4] 13.1 µM | [5] 13.5 µM | [6] 6.41 µM | [7] 12.4 µM | [8] 15.6 µM | [9] 12.2 µM | [10] 14 µM | [11] 15.3 µM | [12] 6.5 µM | [13] 11.1 µM | [14] 12.3 µM | [15] 12.5 µM | [16] 14.6 µM | [17] 13.4 µM

C=C(Br)N(CC)CC
inactive: [1] > 100 µM | [2] > 100 µM | [3] > 100 µM | [4] > 100 µM | [5] > 100 µM | [6] > 100 µM | [18] > 100 µM | [7] > 100 µM | [8] > 100 µM | [9] > 100 µM | [10] > 100 µM | [11] > 100 µM | [12] > 100 µM | [13] > 100 µM | [14] > 100 µM | [15] > 100 µM | [16] > 100 µM | [17] > 100 µM

CC(C)(Oc1ccc2c(=O)cc(-c3ccc(Cl)cc3)oc2c1)C(=O)Nc1c(Cl)cccc1Cl
inactive: [1] > 100 µM | [3] > 100 µM | [4] > 100 µM | [6] > 100 µM | [18] > 100 µM | [7] > 100 µM | [8] > 100 µM | [9] > 100 µM | [10] > 100 µM | [11] > 100 µM | [12] 5.98 µM | [13] 25 µM | [15] > 100 µM | [16] > 100 µM | [17] > 100 µM

CN(C)C(=S)N=C(Nc1ccccc1)Nc1ccccc1
inactive: [1] > 100 µM | [2] > 100 µM | [3] > 100 µM | [4] > 100 µM | [5] > 100 µM | [6] > 100 µM | [18] > 100 µM | [7] > 100 µM | [8] > 100 µM | [9] > 100 µM | [10] > 100 µM | [11] > 100 µM | [12] > 100 µM | [13] > 100 µM | [14] > 100 µM | [15] > 100 µM | [16] > 100 µM | [17] > 100 µM

C/C(CC(=O)Nc1ccccc1[N+](=O)[O-])=N\NC(N)=O
inactive: [1] > 100 µM | [2] > 100 µM | [3] > 100 µM | [4] > 100 µM | [6] > 100 µM | [18] > 100 µM | [7] > 100 µM | [8] > 100 µM | [9] > 100 µM | [10] > 100 µM | [11] > 100 µM | [12] > 100 µM | [13] > 100 µM | [14] > 100 µM | [16] > 100 µM | [17] > 100 µM

CCOc1ccccc1NC(=O)C(=O)CC(=O)C1=C(C)Nc2ccccc2S1
inactive: [1] > 100 µM | [2] > 100 µM | [3] > 100 µM | [4] > 100 µM | [5] > 100 µM | [6] > 100 µM | [18] > 100 µM | [7] > 100 µM | [8] > 100 µM | [9] > 100 µM | [10] > 100 µM | [11] > 100 µM | [12] > 30.5 µM | [13] > 93.3 µM | [14] > 100 µM | [15] > 100 µM | [16] > 100 µM | [17] > 100 µM
